Results taken from patent US20160235807A1, “AGONISTS OF GUANYLATE CYCLASE USEFUL FOR DOWNREGULATION OF PRO-INFLAMMATORY CYTOKINES” (SYNERGY PHARMACEUTICALS, INC., priority 2013, published 2016).
Entries after “also recorded” stand apart in the source; their conditions may differ. Bridge positions count the residues as written; N and C are the ends. Square brackets hold non-standard residues; d marks the D form. Peptide text beside a SMILES is read from it.

Assays:
[1] = Non-clinical safety and toxicology studies; conditions: rodents and monkeys, oral
[2] = test system: myeloperoxidase (MPO) activity in colon tissues; experiment: MPO activity in lysates from mid-colon tissues, DSS-induced colitis in BDF-1 mice; format: in vivo, mouse
Procedure: A total of 40 samples were chosen for analysis of MPO activity and Ki-67 labeling from the treatment groups that received SP-333, its vehicle control (0.1M phosphate buffer, pH 7) and the reference compound (5-ASA). A random number generator (www.random.org) was employed to select samples from these groups (7 from each of the SP-333-recipient groups and 6 from each of the vehicle and 5-ASA groups).
Myeloperoxidase activity in colonic tissue samples was performed according to the method described (Krawisc et al., 1984). Briefly, the rate of change in absorbance at 450 nm was recorded when 20 μl of tissue extract was incubated with […] of reaction buffer containing 0.26 mg/ml 0-dianisidine and 0.6 μl/ml H2O2. Each reaction was performed in triplicate. The rate of reaction was determined (initial slope) and normalized to protein concentration of sample.

DSS-induced colitis = DSS-induced colitis in BDF-1 mice; format: in vivo, mouse
Procedure: To evaluate the efficacy of plecanatide in DSS induced colitis model, 48 BDF-1 mice were divided into 8 treatment groups (6 mice/group). One group was not exposed to DSS (untreated control) and groups 2-8 were treated with 5% DSS in the drinking water on day 0. Plecanatide or SP-333 solutions formulated in 0.1M phosphate buffer (pH 7) was administered by oral gavage, once a day at 0.005, 0.05, 0.5, 2.5 and 5 mg/kg, from study day −1 (i.e. prior to initiation of DSS treatment) through day 6 for SP-333 or day 7 for plecanatide. DSS treatment was initiated on day 0 for groups 2-8 until the end of the study. Sulfasalazine (80 mg/kg) or 5-ASA (100 mg/kg) was used as positive control and was administered daily. Mice were sacrificed on day 7. The large intestine was removed and weighed. Distal section of the large intestine was collected and fixed as described above.
Disease activity index (DAI) was calculated by scoring in-life parameters starting from day −1 until the end of the study. Once daily, all mice were weighed and assessed for stool consistency, and the presence of overt blood in the stool or around the anus essentially similar to that reported earlier. Colitis severity was assessed by histopathological analyses of H&E stained tissue sections (Hegazi et al., 2005; Dave et al., 2009) employing the following criteria: (score 0) normal appearing crypts; (score 1) abnormal crypt pathology without ulceration; (score 2) depleted crypts with ulceration; (score 3) 20-50% depleted crypts and increased ulceration; (score 4) >50% depleted crypts with substantial ulceration and (score 5) totally ulcerated/inflamed colon with no crypts remaining. All slides were scored in a blinded manner. Colitis severity in TCRα−/− model was scored as previously described^25. All slides were scored in a blinded manner. Disease activity index (DAI) was calculated by assessing body weight, stool consistency, and the presence of overt blood in stools or around the anus, essentially similar to that reported earlier (Hamamoto et al., 1999).

T84 cells [3] = experiment: Quantitative RT-PCR for transcripts in T84 cells; format: cell-based, human
Procedure: T-84 cells (˜10^7 cells) were treated with 1 μM SP-333 for 5 h. Subsequently, cDNA was prepared from total RNA using High Capacity RNA-to-cDNA Kit (Applied Biosystems, Carlsbad, Calif.) according to manufacturer's instructions. Quantitative Real-Time PCR amplification and analysis were carried out using Lightcycler 480 (Roche, Basel Switzerland), p65 and IKK-13 specific Taqman gene expression assays and Lightcycler 480 Probe master. All amplification assays were performed in duplicate employing 20 ng cDNA (based on input RNA). The total reaction volume was adjusted to 20 μL with appropriate amounts of TaqMan gene expression assays, Lightcycler 480 probe master and distilled water, then subjected to 45 PCR cycles using default cycling parameters. GAPDH transcript was used as endogenous control. The data generated were analyzed and expressed as target gene expression relative to endogenous control using comparative Cp method and 2^−ΔΔCp formula (comparative Cp values and advanced quantitative relative quantification method). TaqMan reagents were obtained from Applied Biosystems (Carlsbad, Calif.).
T-84 cells were treated with 1 μM SP-333 for 5 hours. Subsequently, cDNA was prepared from total RNA and subjected to quantitative Real-Time PCR using TaqMan reagents from Applied Biosystems.

LPS stimulated T84 cells = experiment: Cytokines expression analysis (ELISA) in LPS stimulated T84 cells; format: cell-based, human; conditions: LPS 10 μg/ml 4 h, then SP-333 16 h
Procedure: To evaluate the effect of different concentrations of SP-333 on secretion of cytokines (IL-8 and TNF), 12-well plates seeded with 10^5 cells/well were used. At 85-90% confluence, cells were washed with DPBS and treated with or without LPS (10 μg/ml) for 4 h, followed by washing with phosphate buffered saline (PBS). SP-333 at 0, 0.01, 0.1, 1 and 10 μM) together with 500 μM of Zaprinast was added to the treated cells and incubated further for 16 h. The levels of IL-8 and TNF were quantified using human IL-8 and TNF ELISA development kits (Peprotech, Rocky Hill, N.J.) Each ELISA was performed in triplicate with cell-free supernatants from two independent experiments. The protein concentration of each well was assessed by Bio-Rad protein dye detection kit.

T84 cells [4] = experiment: Quantitative RT-PCR for transcripts in T84 cells; format: cell-based, human; remark: listed apart in the source
[5] = SP-333 0.005 to 5 mg/kg oral daily, vs DSS alone or DSS plus vehicle
[6] = SP-333 1 μM, 5 h, compared to unstimulated T84 cells, FIG. 3D
[7] = T84 cells, compared to untreated cells, FIG. 16

CC(C)C[C@@H]1NC(=O)[C@H](CCC(=O)O)NC(=O)[C@@H](NC(=O)[C@H](CCC(=O)O)NC(=O)[C@H](CC(=O)O)NC(=O)[C@H](N)CC(N)=O)CSSC[C@@H]2NC(=O)[C@H](C)NC(=O)[C@H](C(C)C)NC(=O)[C@H](CC(N)=O)NC(=O)[C@H](C(C)C)NC(=O)[C@H](CSSC[C@@H](C(=O)N[C@H](CC(C)C)C(=O)O)NC(=O)CNC(=O)[C@H]([C@@H](C)O)NC2=O)NC1=O [SP-333, dAsn^1-Asp^2-Glu^3-Cys^4-Glu^5-Leu^6-Cys^7-Val^8-Asn^9-Val^10-Ala^11-Cys^12-Thr^13-Gly^14-Cys^15-dLeu^16] (H-[dN]DECELCVNVACTGC[dL]-OH; disulfide 4-12, 7-15; N-terminus and C-terminus assumed)
non-clinical safety and toxicology [1]: orally-safe drug candidate
reduction of MPO activity ([2]; SP-333 0.05 mg/kg): ~50%
MPO activity ([2]; SP-333 0.05 mg/kg, p=0.001 vs DSS group (0.048±0.004)): 0.024±0.003 units/minute
MPO activity compared to DSS treated animals ([2]; SP-333 all doses, significant (p<0.05) except 0.5 mg/kg): significantly lower; also recorded: considerably reduced; also recorded: much lower
histopathology score (DSS-induced colitis; DSS+SP-333 0.005 mg/kg, representative image FIG. 10C (DSS alone 4)): 1
histopathology score (DSS-induced colitis; DSS+SP-333 0.05 mg/kg, representative image FIG. 10D): 2
histopathology score (DSS-induced colitis; DSS+SP-333 0.5 mg/kg, representative image FIG. 10E): 2
amelioration of colitis compared with 5-ASA (DSS-induced colitis; SP-333 0.005 mg/kg oral): as effective as 5-ASA (100 mg/kg)
DAI (DSS-induced colitis; SP-333 0.05 mg/kg oral, vs DSS vehicle control, p=0.041): significant reduction
mean DAI scores (DSS-induced colitis; [5]): lower
mean scores of colitis severity (DSS-induced colitis; [5]): lower
histological evaluation of colon tissues (crypts) (DSS-induced colitis; SP-333 treatment groups): minimal loss of crypts with very low distortions in crypt morphology
reduction of transcript levels of IKK-13 (T84 cells [3]; [6]): approximately 50%
reduction of transcript levels of p65 (T84 cells [3]; [6]): approximately 50%
decrease in IKKβ expression (T84 cells [3]; [7]): 59%
decrease in p65 expression (T84 cells [3]; [7]): 55%
LPS stimulated production of IL-8 (LPS stimulated T84 cells): concentration dependent reversal
LPS stimulated production of TNF (LPS stimulated T84 cells): concentration dependent reversal
transcripts of cell division cycle 25a (putative c-Myc target gene) (T84 cells [4]): reduced
transcripts of cyclin D1 (putative c-Myc target gene) (T84 cells [4]): reduced
transcripts of p53 (putative c-Myc target gene) (T84 cells [4]): reduced
Expression of Protein Kinase G I and II Transcripts (T84 cells [4]; FIG. 15): enhanced
decrease in Cyclin D1 expression (T84 cells [4]; FIG. 17): 58%
decrease in Survivin expression (T84 cells [4]; FIG. 17): 50%
decrease in c-Myc expression (T84 cells [4]; FIG. 17): 92%
expression of β-Catenin (T84 cells [4]; FIG. 17): no effect
decrease in c-Src expression (T84 cells [4]; compared to untreated cells, FIG. 16): 52%
